Experimental data from PMC10653858 (mBio, 2023).

Assays:
LegAS4 = format: binding, L. pneumophila strain Philadelphia; conditions: pH 7.5
LegAS4 enzymes = format: binding, L. pneumophila strain Philadelphia
SET domain = format: binding, L. pneumophila; conditions: pH 8

Compound | Peptide binding to wild-type LegAS4, in words (LegAS4) | SAM binding of the different proteins, in words (LegAS4 enzymes) | SAM binding of the SET domain alone, in words (SET domain)
ARTKQT-K(Biotin)-NH2 [H3 peptide (Ala1-Ala7)] | not binding the enzyme |  | 
C[S+](CC[C@H](N)C(=O)[O-])C[C@H]1O[C@@H](n2cnc3c(N)ncnc32)[C@H](O)[C@@H]1O (stereo partly drawn) [SAM] |  | same binding capacity to SAM | greatly decreased SAM binding
